In one data set the test system is Cl1-1 cells. As to the kind of experiment: Cytotoxicity / anti-proliferative activity in CL1-1 lung cancer cells. The conditions noted are these: read-out: Cytotoxicity IC50 Cl1-1; mean SD of three determinations.
The next data set relates to MV4-11 cells. As to the kind of experiment: Survival/apoptosis of MV4-11 AML cells by Annexin V labeling. It is filed as cell-based, human.
The subject of a further data set is CM-p53 protein complex. As to the kind of experiment: Interaction of CM with p53 under HDAC8i treatment. Type of data set: cell-based. The text has this: Cells were lysed in RIPA buffer containing protease inhibitor cocktail (Roche) and MG132. Antibodies used for IP were conjugated with protein A/G beads using the antibody cross-linking kit (Pierce Biotechnology, Rockford, Ill.) following manufacturer's protocol. For Western blot, proteins were resolved in 10% SDS-PAGE. The antibodies used induced anti-FLAG (Sigma), anti-HDAC8, anti-CBFβ (Santa Cruz), anti-p53 (DO-1), anti-Ac-p53 (K379) (Cell Signaling), anti-p53 (Cell signaling) and anti-β-actin (Sigma). Horseradish peroxidase-conjugated anti-rabbit or anti-mouse secondary antibodies (Jackson ImmunoResearch, West Grove Pa.) were used, followed by detection using the SuperFemto kit (Pierce Biotechnology, Rockford, Ill.).
Class 1 HDACs, including HDAC1, HDAC2, and HDAC3, reportedly could inhibit p53 activity by deacetylating p53 [41-43]. […] To test this, we used lentivirus (pLKO. 1) mediated expression of 2 independent small-hairpin (sh)-RNA sequences against Hdac8 to specifically knock-down Hdac8 in 32D-CM cells. Cells were exposed to IR (3Gy) and analyzed for levels of p53 acetylation 6 h after.

A further data set relates to KG1a cells. As to the kind of experiment: Survival of KG1a AML cells by Annexin V labeling. It is filed as cell-based, human. The conditions noted are these: 48 h, result in words.
The test system of data set [1] is p53 target genes in pre-leukemic and leukemic progenitor cells expressing CM. To be noted: 10 μM, 16 h, qRT-PCR.
Description: Relative expression of each target gene was normalized to levels of Hprt. Shown are fold activation compared to levels in vehicle treated cells (dashed line). Results represent the mean±SD.
We next examined whether enhanced p53 acetylation translate into increased p53 transcriptional activity. Using qRT-PCR assay, we accessed induction of p53 target genes in CM-ΔC95, CM, and CBFβ expressing cells upon IR (3Gy).
For data set [2], the system named is normal HSCs (CB CD34^+ cells). As to the kind of experiment: Engraftment of normal CB CD34+ cells treated ex vivo into NSG mice. To be noted: 10 μM 48 h ex vivo, 16 weeks. The text has this: FIGS. 18A-18F. […] Shown are engraftment levels of each population (CD45+, CD34+, CD33+, CD14+, CD15+) in the bone marrow and spleen weight at 16 weeks after transplantation. […] FIGS. 18A-18F (in order): CD45+, CD34+, CD33+, CD14+, CD15+, and spleen.
AML is maintained by LSCs that are relatively resistant to chemotherapy and can persist as potential sources of relapse. Even though AML with CBF translocations are considered to have favorable prognosis, the incidence of relapse is still 25-58% with chemotherapy.

Data set [3] relates to dTomato^+/cKit^+ AML cells (CBFβ-SMMHC^+ LSCs). As to the kind of experiment: Ex vivo treatment of CM-induced AML cells followed by transplantation into irradiated congenic mice. Type of data set: in vivo. As to the method: FIGS. 6A-6G. […] FIG. 6A: Schematic illustration of experimental design. […] Progression of AML was monitored by engraftment of AML cells in peripheral blood (PB) over time (4, 8 weeks) and engraftment in bone marrow and spleen was analyzed 8 weeks after transplantation. A cohort of mice was monitored for AML development and disease-free survival. […] Results represent mean±SD. […] FIG. 6D: Representative FACS plots of engrafted dTomato^+/cKit^+ AML cells in the bone marrow or spleen 8 weeks after transplantation.
Ai14 Cre reporter tdTomato mice on C57BL/6 background were obtained from the Jackson Laboratory. To induce CBFβ-SMMHC expression, 4-6 week old Mx1-Cre/Cbfb^56M/+ mice were injected with 250 μg of polyinosinic-polycytidylic acid (pIpC) (InvivoGen) every 2 days for 7 doses. Similarly treated Cbfb^56M/+ littermates without Cre were used as control. Pre-leukemic cells were isolated from mice 2 weeks after the last dose of pIpC treatment. For leukemia development, induced mice were monitored up to 6 months and analyzed when moribund. Transplantation of AML cells (2×10^6 cells/mouse) was performed via tail vein injection into sub-lethally irradiated (6.5 Gy) 6-8-week-old congenic C57BL/6 mice (CD45.1^+/CD45.2^+). All mice were maintained in an AAALAC-accredited animal facility at City of Hope, and all experimental procedures involving mice were performed in accordance with federal and state government guidelines and established institutional guidelines and protocols approved by the Institutional Animal Care and Use Committee at Beckman Research Institute of City of Hope.
AML LSCs are functionally characterized by their capacity to engraft and reproduce AML disease in transplanted host. […] To test this, we made use of our murine CM-induced AML model allowing for high-level engraftment and reproducible disease upon secondary transplantation. To facilitate tracking of CM-expressing AML cells, we created Cbfb^56M/+/Mx1-Cre mice with a Cre-reporter line expressing tdTomato fluorescence protein following Cre-mediated recombination.

Another data set concerns normal CD34^+ cells. As to the kind of experiment: Apoptosis/cytotoxicity in normal CD34+ cells. The source says: Given that the frequency of TP53 mutation is relatively low in AML, altered post-translational modification by HDAC8 could represent an alternative p53-inactivating mechanism and contribute to drug resistance of AML stem cells. We first examined the expression of HDAC8 in CD34^+ stem and progenitor cells isolated from patients with inv(16)^+ AML compared to normal mobilized peripheral blood stem cells (PBSC).

A further data set deals with HDAC10 (Homo sapiens (Human), UniProt Q969S8). As to the kind of experiment: Inhibition of purified HDAC10. The conditions noted are these: read-out: HDAC 10 IC50; class II.
Chain of HDAC10 (Q969S8 whole entry, species assumed): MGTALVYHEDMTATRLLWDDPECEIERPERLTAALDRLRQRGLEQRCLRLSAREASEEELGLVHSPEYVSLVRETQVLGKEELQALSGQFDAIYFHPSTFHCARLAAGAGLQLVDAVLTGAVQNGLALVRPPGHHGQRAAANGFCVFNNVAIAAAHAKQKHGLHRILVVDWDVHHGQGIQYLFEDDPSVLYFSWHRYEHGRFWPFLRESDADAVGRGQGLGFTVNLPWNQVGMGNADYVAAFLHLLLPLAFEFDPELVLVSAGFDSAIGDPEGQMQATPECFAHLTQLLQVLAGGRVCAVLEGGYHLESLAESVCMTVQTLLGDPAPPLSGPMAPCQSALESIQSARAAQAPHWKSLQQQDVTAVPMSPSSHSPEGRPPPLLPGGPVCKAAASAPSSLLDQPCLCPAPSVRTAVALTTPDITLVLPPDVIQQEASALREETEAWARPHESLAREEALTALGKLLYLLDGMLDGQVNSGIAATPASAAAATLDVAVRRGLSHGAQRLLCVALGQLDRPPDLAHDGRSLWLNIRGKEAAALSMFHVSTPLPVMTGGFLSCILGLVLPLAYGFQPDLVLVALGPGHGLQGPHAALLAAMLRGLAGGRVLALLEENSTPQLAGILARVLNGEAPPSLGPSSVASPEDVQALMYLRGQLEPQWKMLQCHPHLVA
Data set [4] relates to p53 target genes in normal CD34^+ cells. As to the kind of experiment: qRT-PCR of p53 target genes in normal CD34+ cells. It is filed as cell-based, human. To be noted: similar treatment. The source says: FIGS. 5A-5G. […] FIG. 5A: Relative expression level of HDAC8 in normal (NL) PBSC (n=7) or inv(16)^+ AML (n=7) CD34^+ cells determined by qRT-PCR. Levels of HDAC8 expression were normalized to levels of ACTB in each sample. Dashed line indicates the average of all NL PBSC samples (set to an arbitrary value of 1). […] Each dot represents an individual subject and lines indicate mean±SEM. * P<0.05; ** P<0.01; *** P<0.001. […] Each dot represents an individual patient and lines indicate mean±SEM. * P<0.05; ** P<0.01; *** P<0.001. […] Levels of β-actin were detected as loading control. Shown are representative results from four patients. […] Each dot represents an individual subject and lines indicate mean±SEM. Dash line indicates levels in vehicle treated cells. * P<0.05; ** P<0.01; *** P<0.001. […] Each dot represents an individual patient and lines indicate mean±SEM.

“Also recorded” adds a separate entry of the source.

Take `COc1ccc(/C=C/C(=O)NO)c(-c2ccc(-c3ccccc3)cc2)c1` [Compound 22d, (E)-N-Hydroxy-4-methoxy-2-(biphenyl-4-yl)cinnamide]: the IC50 is above 10 nM in the data set with Cl1-1 cells; 2710 nM with MV4-11 cells (48-hr, Annexin V labeling, read-out: MV4-11 Apoptosis IC50); above 20 nM on HDAC10. The “survival of MV4-11 cells” value with MV4-11 cells (48 h, result in words) was “decreases with increased HDAC8i concentration”. In the data set on CM-p53 protein complex, the “interaction of CM with p53” value is “did not disrupt the interaction of CM with p53”. Besides, the “survival of KG1a cells” value with KG1a cells is reported as “decreases with increased HDAC8i concentration”. The “activation of p53 target genes in progenitor cells expressing endogenous levels of CM” value in data set [1] is given as “induces activation of p53 targets”. For the same molecule, the “engraftment activity of normal HSCs” value in [2] was “does not affect normal HSC engraftment; also recorded: no impact on short-term or long-term engraftment activity”. In addition, the “frequencies of dTomato+/cKit+ AML cells in BM and spleen” value in [3] (8 weeks after transplantation, vs vehicle-treated cells) is listed as “significantly (p=0.025) reduced frequencies”. The “total numbers of dTomato+/cKit+ AML cells in BM and spleen” value in [3] (8 weeks after transplantation, vs vehicle-treated group) is “significantly (p=0.025) lower”. Moreover, in data set [3] (cells treated 10 μM 48 h before transplantation), the “dTomato+/cKit+ cells in the peripheral blood” value is on record as “barely detectable”. Further, the “engraftment of dTomato+ and dTomato+/cKit+ cells” value in [3] (equal number (2×10^6) of treated AML cells transplanted) is given as “reduced the engraftment”. Further, the “AML onset and survival of transplanted mice” value in [3] (mouse, in vivo) was “prevented AML reoccurrence”. Besides, the survival of mice entry in [3] (mouse, in vivo) was “enhanced survival”. Besides, the “difference between CD34+ cells from PBSC and CB” value in the data set on normal CD34^+ cells (based on cell origin) was “no significant difference”. Besides, the “cytotoxicity in normal CD34+ cells” value in the data set on normal CD34^+ cells (higher dose (40 μM), 48 h) is given as “Modest cytotoxicity”. Also, the “p53 target expression in normal CD34+ cells” value in data set [4] was “no or little change in p53 target expression”.

The values above are taken from patent US11505523B2, “HDAC8 inhibitors for treating cancer” (City of Hope, priority 2013, dated 2022).
